Measurements: US20100152429A1, “SODIUM SALT OF DISACCHARIDE COMPOUND, METHOD FOR PRODUCING THE SAME, AND USE OF THE SAME” (Eisai R&D Management Co., Ltd., priority 2006, published 2010)

Assay: Storage Safety Test: impurity generation on storage at 25° C., HPLC;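 further: HPLC peak area percentages of three decomposition products, each sample run alongside a methanol-only blank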
Assay type: physicochemical
Conditions: HPLC percentage of area
[1] = 0 days, stored in glass bottles at 25° C.
[2] = 1.0 days, stored at 25° C., listed as 3.67 Na salt
[3] = 1.9 days, stored at 25° C., listed as 3.67 Na salt
[4] = 4.5 days, stored at 25° C., listed as 3.67 Na salt
[5] = 1.0 days, stored at 25° C., listed as 3.93 Na salt
[6] = 1.9 days, stored at 25° C., listed as 3.93 Na salt
[7] = 4.5 days, stored at 25° C., listed as 3.93 Na salt

Method: When HPLC analysis was performed under the conditions shown in Table 1 for each solution and blank solution (methanol only), three types of decomposition product were identified, and the generation ratio (converted to a monthly basis) was calculated for each of the three decomposition products (impurities A, B and C) as a percentage of area.

CCCCCCC=CCCCCCCCCCC(=O)NC1C(OCC2OC(OP(=O)([O-])[O-])C(NC(=O)CC(=O)CCCCCCCCCCC)C(OCCCCCCCCCC)C2O)OC(COC)C(OP(=O)([O-])[O-])C1OCCC(CCCCCCC)OC.[Na+].[Na+].[Na+].[Na+] (stereo not drawn) [Comparative Example 1, reference compound]
Impurity A [1]: 0.00
Impurity B [1]: 0.18
Impurity C [1]: 0.00
Impurity A (1.0 days, stored at 25° C.): 0.06
Impurity B (1.0 days, stored at 25° C.): 0.36
Impurity C (1.0 days, stored at 25° C.): 0.00
Impurity A (1.9 days, stored at 25° C.): 0.08
Impurity B (1.9 days, stored at 25° C.): 0.48
Impurity C (1.9 days, stored at 25° C.): 0.00
Impurity A (4.5 days, stored at 25° C.): 0.12
Impurity B (4.5 days, stored at 25° C.): 0.67
Impurity C (4.5 days, stored at 25° C.): 0.00
Impurity C (8.8 days, stored at 25° C.): 0.00
Impurity C (29.5 days, stored at 25° C.): 0.03

CCCCCC/C=C\CCCCCCCCCC(=O)N[C@H]1[C@H](OC[C@H]2O[C@H](OP(=O)(O)O)[C@H](NC(=O)CC(=O)CCCCCCCCCCC)[C@@H](OCCCCCCCCCC)[C@@H]2O)O[C@H](COC)[C@@H](OP(=O)(O)O)[C@@H]1OCC[C@@H](CCCCCCC)OC [Example 2]
Impurity A [1]: 0.00
Impurity B [1]: 0.00
Impurity C [1]: 0.00
Impurity A (18 days, stored at 25° C.): 0.00
Impurity B (18 days, stored at 25° C.): 0.00
Impurity C (18 days, stored at 25° C.): 0.17

CCCCCC/C=C\CCCCCCCCCC(=O)N[C@H]1[C@H](OC[C@H]2O[C@H](OP(=O)([O-])[O-])[C@H](NC(=O)CC(=O)CCCCCCCCCCC)[C@@H](OCCCCCCCCCC)[C@@H]2O)O[C@H](COC)[C@@H](OP(=O)([O-])[O-])[C@@H]1OCC[C@@H](CCCCCCC)OC.[Na+].[Na+].[Na+].[Na+] [Example 3]
Impurity A [1]: 0.00
Impurity C [1]: 0.00
Impurity B (0 days, stored in glass bottles at 25° C., listed as 3.67 Na salt): 0.08
Impurity C (1.0 days, stored at 25° C.): 0.00
Impurity A [2]: 0.00
Impurity B [2]: 0.12
Impurity C (1.9 days, stored at 25° C.): 0.00
Impurity A [3]: 0.01
Impurity B [3]: 0.09
Impurity C (4.5 days, stored at 25° C.): 0.01
Impurity A [4]: 0.01
Impurity B [4]: 0.13
Impurity C (8.8 days, stored at 25° C.): 0.01
Impurity C (29.5 days, stored at 25° C., listed as 3.67 Na salt): 0.07

CCCCCC/C=C\CCCCCCCCCC(=O)N[C@H]1[C@H](OC[C@H]2O[C@H](OP(=O)([O-])[O-])[C@H](NC(=O)CC(=O)CCCCCCCCCCC)[C@@H](OCCCCCCCCCC)[C@@H]2O)O[C@H](COC)[C@@H](OP(=O)([O-])[O-])[C@@H]1OCC[C@@H](CCCCCCC)OC.[Na+].[Na+].[Na+].[Na+] [Example 4]
Impurity B (0 days, stored in glass bottles at 25° C., listed as 3.93 Na salt): 0.14
Impurity A [5]: 0.03
Impurity B [5]: 0.26
Impurity A [6]: 0.04
Impurity B [6]: 0.29
Impurity A [7]: 0.06
Impurity B [7]: 0.38
Impurity C (29.5 days, stored at 25° C., listed as 3.93 Na salt): 0.06
